From patent publication US20240389591A1, “CRYSTALLINE FORMS OF METHYL 2-[2-[2-BROMO-4-FLUORO-5-[3-METHYL-2,6-DIOXO-4-(TRIFLUOROMETHYL)PYRIMIDIN-1-YL]PHENOXY]PHENOXY]-2-METHOXY-ACETATE” (BASF SE, priority 2021, published 2024)

How the values were obtained:
Lolium multiflorum = experiment: Greenhouse herbicidal activity, post-emergence treatment; assay type: in vivo; settings: assessment 20 DAT, aqueous SC 8.33 w/v %, scale 0-100
Text: (§1) The culture containers used were plastic flowerpots containing loamy sand with approximately 3.0% of humus as the substrate. The seeds of the test plants were sown separately for each species.
(§2) For the post-emergence treatment, the test plants were first grown to a height of 3 to 15 cm, depending on the plant habit, and only then treated with the active ingredients which had been suspended or emulsified in water. For this purpose, the test plants were either sown directly and grown in the same containers, or they were first grown separately as seedlings and transplanted into the test containers a few days prior to treatment.
(§3) Depending on the species, the test plants were kept at 10-25° C. or 20-35° C., respectively. The test period extended over 2 to 4 weeks. During this time, the test plants were tended, and their response to the individual treatments was evaluated.
(§4) Evaluation was carried out using a scale from 0 to 100. 100 means no emergence of the test plants, or complete destruction of at least the aerial moieties, and 0 means no damage, or normal course of growth. A good herbicidal activity is given at values of at least 70 and a very good herbicidal activity is given at values of at least 85.
(§5) The abovementioned methods were used to compare, in a greenhouse test, form A according to the invention and, as comparison the compound of formula (I) in amorphous form, in each case formulated as aqueous suspension concentrate (SC; 8.33 w/v %).

Erigeron canadensis = experiment: as above; assay type: in vivo; settings: assessment 20 DAT, aqueous SC 8.33 w/v %, scale 0-100
Text: as §1, §2, §3, §4, §5

SMILES	Damage [%] (Lolium multiflorum; 2 g/ha a.i.)	Damage [%] (Lolium multiflorum; 4 g/ha a.i.)	Damage [%] (Lolium multiflorum; 8 g/ha a.i.)	Damage [%] (Lolium multiflorum; 16 g/ha a.i.)	Damage [%] (Erigeron canadensis; 2 g/ha a.i.)	Damage [%] (Erigeron canadensis; 4 g/ha a.i.)
COC(=O)C(OC)Oc1ccccc1Oc1cc(-n2c(=O)cc(C(F)(F)F)n(C)c2=O)c(F)cc1Br (stereo not drawn) [amorphous, methyl 2-[2-[2-bromo-4-fluoro-5-[3-methyl-2,6-dioxo-4-(trifluoromethyl)pyrimidin-1-yl]phenoxy]phenoxy]-2-methoxy-acetate]	15	25	75	80	30	70
COC(=O)C(OC)Oc1ccccc1Oc1cc(-n2c(=O)cc(C(F)(F)F)n(C)c2=O)c(F)cc1Br (stereo not drawn) [Form A, methyl 2-[2-[2-bromo-4-fluoro-5-[3-methyl-2,6-dioxo-4-(trifluoromethyl)pyrimidin-1-yl]phenoxy]phenoxy]-2-methoxy-acetate]	50	70	90	90	60	100
